# Laboratory results taken from US12252524B2, “GIP/GLP1 co-agonist compounds” (Eli Lilly and Company, priority 2018, dated 2025).
# Numbered stars: 1 amine (or outer) side, 2 acyl side, 3 side chain; on linkers, the order of the positions; unused ones are H or OH. Square brackets hold non-standard residues; d marks the D form. Side chains are listed from the residue outwards. Peptide text beside a SMILES is read from it. * marks the point of attachment. C20 diacid = O=C(O)CCCCCCCCCCCCCCCCCCC(=O)*; C18 diacid = O=C(O)CCCCCCCCCCCCCCCCC(=O)*; αMePhe(2-F) = C[C@](N)(Cc1ccccc1F)C(=O)O; γGlu = O=C(O)[C@H](CCC(=O)[*:2])N[*:1]; αMeF = C[C@](N)(Cc1ccccc1)C(=O)O; αMeL = CC(C)C[C@](C)(N)C(=O)O; Nle = CCCC[C@H](N)C(=O)O; Orn = NCCC[C@H](N)C(=O)O; AEEA = NCCOCCOCC(=O)O; Aib = CC(C)(N)C(=O)O
# How the values were obtained:
# human Gcg receptor = target: T1, human Gcg receptor (Homo sapiens, UniProt P47871); assay: [125I]-Glucagon binding (SPA), human Gcg receptor; details: read-out: hGLcgR Ki, nM (SEM, n)
# T1 construct: expressed in transfected cells; crude membranes
# In short: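 Scintillation counts are taken after membranes and WGA beads incubate and settle for 12 hours at room temperature. Buffer is 25 mM HEPES, pH 7.4, with CaCl2, MgCl2, bacitracin and Tween-20. Ki values, from four-parameter IC50 fits, are geometric means over independent days.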
# [1] = target: human GLP-1 receptor (GLP-1R) (Homo sapiens, UniProt P43220); assay: cAMP pharmacological functional assay in presence of casein, hGLP-1R; type: cell-based; details: HEK293 cells expressing hGLP-1R, 0.1% Casein, geometric mean; read-out: hGLP1R cAMP Rel EC50 nM (SEM, n)
# human GIP receptor = target: T2, human GIP receptor (Homo sapiens, UniProt P48546); assay: [125I]-GIP binding (SPA), human GIP receptor; details: read-out: hGIPR Ki, nM (SEM, n)
# T2 construct: expressed in transfected cells; crude membranes
# T2 sequence (P48546 22-466): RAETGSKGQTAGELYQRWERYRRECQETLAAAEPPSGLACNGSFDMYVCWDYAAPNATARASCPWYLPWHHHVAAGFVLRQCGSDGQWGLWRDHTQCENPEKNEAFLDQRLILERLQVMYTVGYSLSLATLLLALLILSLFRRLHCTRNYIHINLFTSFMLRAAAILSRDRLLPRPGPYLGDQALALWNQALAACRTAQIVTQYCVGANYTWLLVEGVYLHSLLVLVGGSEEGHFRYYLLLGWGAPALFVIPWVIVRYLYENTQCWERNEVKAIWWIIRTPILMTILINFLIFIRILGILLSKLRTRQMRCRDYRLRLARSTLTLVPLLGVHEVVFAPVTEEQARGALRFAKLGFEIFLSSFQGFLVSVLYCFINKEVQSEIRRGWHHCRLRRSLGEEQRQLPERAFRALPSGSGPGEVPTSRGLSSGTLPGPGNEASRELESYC
# [2] = target: T3, gastric inhibitory peptide receptor (GIPR) (Homo sapiens, UniProt P48546); assay: cAMP pharmacological functional assay in presence of casein, hGIPR; type: cell-based; details: HEK293 cells expressing hGIPR, 0.1% Casein, geometric mean; read-out: hGIPR cAMP Rel EC50 nM (SEM, n)
# T3 sequence (P48546 22-466): T2 sequence (P48546 22-466)
# human GLP-1R = human GLP-1R (Homo sapiens, UniProt P43220); assay: [125I]-GLP-1 binding (SPA), human GLP-1 receptor; parameters: expressed in transfected cells; crude membranes; details: read-out: hGLP1R Ki, (nM) (SEM, n)
# In short: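 Crude-membrane binding assay; one membrane prep included 1 mM MgCl2 and 25 units/ml DNAse I during lysis. Assay buffer at pH 7.4 contains 0.1% (w/v) bacitracin and 0.003% (w/v) TWEEN-20. Ki is reported as geometric mean.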
# T1 sequence (P47871 26-477): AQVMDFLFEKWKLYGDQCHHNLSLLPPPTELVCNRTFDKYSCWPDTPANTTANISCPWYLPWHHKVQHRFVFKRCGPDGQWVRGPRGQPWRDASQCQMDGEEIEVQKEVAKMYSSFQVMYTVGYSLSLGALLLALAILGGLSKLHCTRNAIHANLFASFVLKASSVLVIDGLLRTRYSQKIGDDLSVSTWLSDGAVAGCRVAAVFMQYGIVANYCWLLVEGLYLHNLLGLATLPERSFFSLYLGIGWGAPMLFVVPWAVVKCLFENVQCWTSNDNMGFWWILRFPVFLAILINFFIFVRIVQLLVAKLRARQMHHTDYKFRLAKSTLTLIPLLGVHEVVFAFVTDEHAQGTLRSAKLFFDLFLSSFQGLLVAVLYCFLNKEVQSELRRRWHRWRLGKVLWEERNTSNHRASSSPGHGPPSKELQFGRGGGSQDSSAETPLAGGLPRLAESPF
# Sequence of human GLP-1 receptor (GLP-1R) (P43220 24-463): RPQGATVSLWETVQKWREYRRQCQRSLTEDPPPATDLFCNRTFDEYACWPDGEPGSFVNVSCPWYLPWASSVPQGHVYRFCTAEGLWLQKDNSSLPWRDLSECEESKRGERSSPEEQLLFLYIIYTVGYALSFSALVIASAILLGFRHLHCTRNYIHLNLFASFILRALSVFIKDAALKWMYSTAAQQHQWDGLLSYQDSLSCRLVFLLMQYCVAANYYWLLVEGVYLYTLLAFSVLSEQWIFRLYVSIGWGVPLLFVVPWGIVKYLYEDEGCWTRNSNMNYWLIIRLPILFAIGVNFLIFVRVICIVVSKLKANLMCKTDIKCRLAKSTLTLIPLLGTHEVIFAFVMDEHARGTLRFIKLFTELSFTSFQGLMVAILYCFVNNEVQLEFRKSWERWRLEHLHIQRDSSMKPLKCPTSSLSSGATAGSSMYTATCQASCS
# Sequence of human GLP-1R (P43220 24-463): as above
SMILES,Ki (human Gcg receptor),EC50 [1],Ki (human GIP receptor),EC50 [2],Ki (human GLP-1R)
CC[C@H](C)[C@H](NC(=O)[C@H](CCCCN)NC(=O)[C@H](CC(=O)O)NC(=O)[C@H](CC(C)C)NC(=O)[C@H](CC(C)C)NC(=O)[C@@H](NC(=O)[C@H](CO)NC(=O)[C@H](Cc1ccc(O)cc1)NC(=O)[C@H](CC(=O)O)NC(=O)[C@H](CO)NC(=O)[C@@H](NC(=O)[C@H](Cc1ccccc1)NC(=O)[C@@H](NC(=O)CNC(=O)[C@H](CCC(=O)O)NC(=O)C(C)(C)NC(=O)[C@@H](N)Cc1ccc(O)cc1)[C@@H](C)O)[C@@H](C)O)[C@@H](C)CC)C(=O)N[C@@H](C)C(=O)N[C@@H](CCC(N)=O)C(=O)N[C@@H](CCCCNC(=O)COCCOCCNC(=O)COCCOCCNC(=O)CC[C@H](NC(=O)CCCCCCCCCCCCCCCCCCC(=O)O)C(=O)O)C(=O)N[C@@H](CCC(=O)O)C(=O)N[C@@H](Cc1ccccc1)C(=O)N[C@H](C(=O)N[C@@H](CCC(N)=O)C(=O)N[C@@H](Cc1ccc(O)cc1)C(=O)N[C@@H](CC(C)C)C(=O)N[C@@H](CC(C)C)C(=O)N[C@@H](CCC(=O)O)C(=O)NC(C)(C)C(=O)NCC(=O)N1CCC[C@H]1C(=O)N[C@@H](CO)C(=O)N[C@@H](CO)C(=O)NCC(=O)N[C@@H](C)C(=O)N1CCC[C@H]1C(=O)N1CCC[C@H]1C(=O)N1CCC[C@H]1C(=O)N[C@@H](CO)C(N)=O)[C@@H](C)CC [Example 14] (H-Y[Aib]EGTFTSDYSILLDKIAQK([AEEA-AEEA-γGlu-C20 diacid])EFIQYLLE[Aib]GPSSGAPPPS-NH2; N-terminus assumed),160 nM,1.87 nM,0.0494 nM,0.284 nM,29.6 nM
CC[C@H](C)[C@H](NC(=O)[C@H](CC(C)C)NC(=O)[C@H](Cc1ccc(O)cc1)NC(=O)[C@@H](CCC(=O)O)NC(=O)[C@@H](NC(=O)[C@H](Cc1ccccc1)NC(=O)[C@H](CCC(=O)O)NC(=O)C(C)(C)NC(=O)[C@H](CCC(N)=O)NC(=O)[C@H](C)NC(=O)[C@H](CCCCNC(=O)COCCOCCNC(=O)COCCOCCNC(=O)[C@@H](N)CCCCNC(=O)CCCCCCCCCCCCCCCCCCC(=O)O)NC(=O)[C@H](CCC(=O)O)NC(=O)[C@H](CC(=O)O)NC(=O)[C@H](CC(C)C)NC(=O)C(C)(CC(C)C)NC(=O)[C@@H](NC(=O)[C@H](CO)NC(=O)[C@H](Cc1ccc(O)cc1)NC(=O)[C@H](CC(=O)O)NC(=O)[C@H](CO)NC(=O)[C@@H](NC(=O)C(C)(Cc1ccccc1F)NC(=O)[C@@H](NC(=O)CNC(=O)[C@H](CCC(=O)O)NC(=O)C(C)(C)NC(=O)[C@@H](N)Cc1ccc(O)cc1)[C@@H](C)O)[C@@H](C)O)[C@@H](C)CC)[C@@H](C)CC)C(=O)N[C@@H](CCC(=O)O)C(=O)NCC(=O)NCC(=O)N1CCC[C@H]1C(=O)N[C@@H](CO)C(=O)N[C@@H](CO)C(=O)NCC(=O)N[C@@H](C)C(=O)N1CCC[C@H]1C(=O)N1CCC[C@H]1C(=O)N1CCC[C@H]1C(=O)N[C@@H](CO)C(N)=O (stereo partly shown) [Example 216],45.2 nM,0.0327 nM,0.0559 nM,0.0401 nM,2.34 nM
CC[C@H](C)[C@H](NC(=O)[C@H](CC(C)C)NC(=O)[C@H](Cc1ccc(O)cc1)NC(=O)[C@H](CCC(=O)O)NC(=O)[C@@H](NC(=O)[C@H](Cc1ccccc1)NC(=O)[C@H](C)NC(=O)C(C)(C)NC(=O)[C@H](CCC(N)=O)NC(=O)[C@H](C)NC(=O)[C@H](CCCCNC(=O)COCCOCCNC(=O)COCCOCCNC(=O)CC[C@H](NC(=O)CCCCCCCCCCCCCCCCCCC(=O)O)C(=O)O)NC(=O)[C@H](CO)NC(=O)[C@H](CC(=O)O)NC(=O)[C@H](CC(C)C)NC(=O)[C@](C)(CC(C)C)NC(=O)[C@@H](NC(=O)[C@H](CO)NC(=O)[C@H](Cc1ccc(O)cc1)NC(=O)[C@H](CC(=O)O)NC(=O)[C@H](CO)NC(=O)[C@@H](NC(=O)[C@H](Cc1ccccc1)NC(=O)[C@@H](NC(=O)CNC(=O)[C@H](CCC(=O)O)NC(=O)C(C)(C)NC(=O)[C@@H](N)Cc1ccc(O)cc1)[C@@H](C)O)[C@@H](C)O)[C@@H](C)CC)[C@@H](C)CC)C(=O)N[C@@H](CCC(=O)O)C(=O)NCC(=O)NCC(=O)N1CCC[C@H]1C(=O)N[C@@H](CO)C(=O)N[C@@H](CO)C(=O)NCC(=O)N[C@@H](C)C(=O)N1CCC[C@H]1C(=O)N1CCC[C@H]1C(=O)N1CCC[C@H]1C(=O)N[C@@H](CO)C(N)=O [Example 52] (H-Y[Aib]EGTFTSDYSI[αMeL]LDSK([AEEA-AEEA-γGlu-C20 diacid])AQ[Aib]AFIEYLIEGGPSSGAPPPS-NH2),> 1100 nM,0.132 nM,0.0342 nM,0.0997 nM,5.81 nM
CCCC[C@H](NC(=O)[C@@H](NC(=O)[C@H](CO)NC(=O)[C@H](Cc1ccc(O)cc1)NC(=O)[C@H](CC(=O)O)NC(=O)[C@H](CO)NC(=O)[C@@H](NC(=O)[C@](C)(Cc1ccccc1F)NC(=O)[C@@H](NC(=O)CNC(=O)[C@H](CCC(=O)O)NC(=O)C(C)(C)NC(=O)[C@@H](N)Cc1ccc(O)cc1)[C@@H](C)O)[C@@H](C)O)[C@@H](C)CC)C(=O)N[C@@H](CC(C)C)C(=O)N[C@@H](CC(=O)O)C(=O)N[C@@H](CCCN)C(=O)N[C@@H](CCCCNC(=O)COCCOCCNC(=O)COCCOCCNC(=O)CC[C@H](NC(=O)CCCCCCCCCCCCCCCCC(=O)O)C(=O)O)C(=O)N[C@@H](C)C(=O)N[C@@H](CCC(N)=O)C(=O)NC(C)(C)C(=O)N[C@@H](CCC(=O)O)C(=O)N[C@@H](Cc1ccccc1)C(=O)N[C@H](C(=O)N[C@H](CCC(=O)O)C(=O)N[C@@H](Cc1ccc(O)cc1)C(=O)N[C@@H](CC(C)C)C(=O)N[C@H](C(=O)N[C@@H](CCC(=O)O)C(=O)NCC(=O)NCC(=O)N1CCC[C@H]1C(=O)N[C@@H](CO)C(=O)N[C@@H](CO)C(=O)NCC(=O)N[C@@H](C)C(=O)N1CCC[C@H]1C(=O)N1CCC[C@H]1C(=O)N1CCC[C@H]1C(=O)N[C@@H](CO)C(N)=O)[C@@H](C)CC)[C@@H](C)CC [Example 249] (H-Y[Aib]EGT[αMePhe(2-F)]TSDYSI[Nle]LD[Orn]K([AEEA-AEEA-γGlu-C18 diacid])AQ[Aib]EFI[dE]YLIEGGPSSGAPPPS-NH2),> 1000 nM,0.0446 nM,0.0394 nM,0.0437 nM,2.35 nM
CC[C@H](C)[C@H](NC(=O)[C@H](CC(C)C)NC(=O)[C@H](Cc1ccc(O)cc1)NC(=O)[C@H](CCC(=O)O)NC(=O)[C@@H](NC(=O)[C@H](Cc1ccccc1)NC(=O)[C@H](CCC(=O)O)NC(=O)C(C)(C)NC(=O)[C@H](CCC(N)=O)NC(=O)[C@H](C)NC(=O)[C@H](CCCCNC(=O)COCCOCCNC(=O)COCCOCCNC(=O)CC[C@H](NC(=O)CCCCCCCCCCCCCCCCC(=O)O)C(=O)O)NC(=O)[C@H](CCCCN)NC(=O)[C@H](CC(=O)O)NC(=O)[C@H](CC(C)C)NC(=O)[C@H](CC(C)C)NC(=O)[C@@H](NC(=O)[C@H](CO)NC(=O)[C@H](Cc1ccc(O)cc1)NC(=O)[C@H](CC(=O)O)NC(=O)[C@H](CO)NC(=O)[C@@H](NC(=O)[C@](C)(Cc1ccccc1)NC(=O)[C@@H](NC(=O)CNC(=O)[C@H](CCC(=O)O)NC(=O)C(C)(C)NC(=O)[C@@H](N)Cc1ccc(O)cc1)[C@@H](C)O)[C@@H](C)O)[C@@H](C)CC)[C@@H](C)CC)C(=O)N[C@@H](CCC(=O)O)C(=O)NCC(=O)NCC(=O)N1CCC[C@H]1C(=O)N[C@@H](CO)C(=O)N[C@@H](CO)C(=O)NCC(N)=O [Example 308] (H-Y[Aib]EGT[αMeF]TSDYSILLDKK([AEEA-AEEA-γGlu-C18 diacid])AQ[Aib]EFIEYLIEGGPSSG-NH2),94.2 nM,0.0392 nM,0.0288 nM,0.0262 nM,1.01 nM
